The values below come from patent EP0719251B1, “BICYCLO (2.2.2) OCTANE DERIVATIVES CHOLECYSTOKININ AND/OR GASTRIN ANTAGONISTS” (JAMES BLACK FOUNDATION LIMITED, priority 1993, dated 1995).

Assay [1] has as its target T1, gastrin (Rattus norvegicus, UniProt P30553).
T1 construct: The stomach was excised and flushed with ca. 1 ml of unbuffered physiological saline solution; from tissue; host or cells: isolated whole stomach of immature rats (33-50 g, ca. 21 days old)
T1 sequence (P30553 1-452): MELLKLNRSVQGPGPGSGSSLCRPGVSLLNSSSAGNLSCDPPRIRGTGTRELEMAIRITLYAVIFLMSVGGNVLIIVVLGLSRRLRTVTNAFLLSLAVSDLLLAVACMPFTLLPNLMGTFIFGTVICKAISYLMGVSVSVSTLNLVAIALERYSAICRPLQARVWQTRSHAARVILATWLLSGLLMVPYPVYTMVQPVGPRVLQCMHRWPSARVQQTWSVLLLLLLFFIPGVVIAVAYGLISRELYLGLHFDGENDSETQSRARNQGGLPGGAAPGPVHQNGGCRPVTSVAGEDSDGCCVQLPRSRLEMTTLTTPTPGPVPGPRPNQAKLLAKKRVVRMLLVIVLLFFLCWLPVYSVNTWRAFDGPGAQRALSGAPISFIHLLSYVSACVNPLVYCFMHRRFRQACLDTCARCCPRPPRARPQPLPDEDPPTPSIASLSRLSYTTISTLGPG
Nature of the assay: gastrin antagonist activity in an immature rat stomach assay. The note with it: isolated immature rat stomach, cumulative pentagastrin dose-response curves, acid secretion; read-out: Gastrin pKB (converted). The essentials:
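Isolated stomachs from immature rats (33-50 g, ca. 21 days) perfused at 1 ml min^-1 with O2-gassed unbuffered saline, perfusate pH monitored by electrode. After 120 min stabilisation, compounds added to serosal bath; cumulative pentagastrin dose-response curves begun 60 min later.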

Assay [2] deals with T2, CCKB receptor (Mus musculus, UniProt P56481).
T2 construct: The whole brains from male mice (CD1 22-25g; Charles River) were removed; from tissue; host or cells: cerebral cortex membranes of male CD1 mice
T2 sequence (P56481 1-453): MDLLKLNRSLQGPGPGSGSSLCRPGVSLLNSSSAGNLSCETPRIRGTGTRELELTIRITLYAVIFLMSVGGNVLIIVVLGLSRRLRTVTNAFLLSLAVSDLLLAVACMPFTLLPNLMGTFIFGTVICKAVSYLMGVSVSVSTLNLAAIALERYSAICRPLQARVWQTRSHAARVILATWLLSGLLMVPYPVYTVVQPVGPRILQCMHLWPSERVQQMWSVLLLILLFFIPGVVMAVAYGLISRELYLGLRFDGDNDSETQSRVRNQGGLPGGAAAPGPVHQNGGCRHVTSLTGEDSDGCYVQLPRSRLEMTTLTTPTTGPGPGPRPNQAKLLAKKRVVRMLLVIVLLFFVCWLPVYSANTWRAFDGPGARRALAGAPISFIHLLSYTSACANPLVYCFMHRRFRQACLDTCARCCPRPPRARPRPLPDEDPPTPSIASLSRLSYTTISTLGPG
The assay is described as follows: radioligand binding assay at the CCKB receptor in mouse cortical membranes. The note with it: [125I]-CCK8S 200pM, 150 min at 21 ± 3°C, read-out: CCKB pKi (converted). The essentials:
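Radioligand binding was quantified by gamma counting after filtration through GF/B filters and cold 50 mM Tris-HCl (pH 7.4) washes. Tissue source was male CD1 mouse cortex, homogenised and twice centrifuged, then resuspended at 2 mg.ml^-1 original wet weight in pH 7.2 HEPES buffer containing bacitracin.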

The target in assay [3] is T3, CCKA (Cavia porcellus, UniProt Q63931).
T3 construct: The pancreatata were removed from male guinea-pigs (200-300g; Dunkin Hartley); from tissue; host or cells: pancreas membranes of male Dunkin Hartley guinea-pigs
T3 sequence (Q63931 1-430): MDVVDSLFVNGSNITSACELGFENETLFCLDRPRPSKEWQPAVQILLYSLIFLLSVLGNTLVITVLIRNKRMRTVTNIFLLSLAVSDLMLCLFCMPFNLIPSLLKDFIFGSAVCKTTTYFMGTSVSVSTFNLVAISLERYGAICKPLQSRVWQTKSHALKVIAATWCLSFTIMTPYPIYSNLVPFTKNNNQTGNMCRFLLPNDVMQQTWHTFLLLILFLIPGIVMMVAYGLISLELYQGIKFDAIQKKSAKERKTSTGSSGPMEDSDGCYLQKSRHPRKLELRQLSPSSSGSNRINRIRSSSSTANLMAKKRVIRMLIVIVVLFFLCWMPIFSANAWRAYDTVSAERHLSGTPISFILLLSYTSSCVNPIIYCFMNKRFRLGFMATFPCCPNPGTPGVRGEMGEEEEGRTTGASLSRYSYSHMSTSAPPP
Nature of the assay: CCKA binding assay in guinea-pig pancreas membranes. The conditions noted are these: [125I]-CCK8(S) 200pM, containing 0.375 µM PD134,308, read-out: CCKA pKi (converted). The essentials:
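Competition binding of [125I]-CCK8(S) (200 pM in the added solution) to male guinea-pig pancreas membranes (1 mg/ml wet weight) containing 0.375 µM PD134,308, in HEPES buffer pH 7.2. Incubated 150 min at 21 ± 3°, then filtered. Bound radioactivity gamma-counted; non-specific binding defined with 100nM L-364,718.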

In the case of `O=C(O)c1cc(NC(=O)[C@H](Cc2ccc(F)cc2)NC(=O)C2C3c4ccccc4C(c4ccccc43)C2C(=O)NCC23CC4CC(CC(C4)C2)C3)cc(C(=O)O)c1` (single isomer, unassigned) [Example 9, cis-7-(1S-(3,5-dicarboxyphenylaminocarbonyl) -2-(4-fluorophenyl)ethylaminocarbonyl)-8-(1-adamantanemethylaminocarbonyl) -2,3,5,6-dibenzobicyclo[2.2.2]octane], the Kb in assay [1] is 20 nM. The results for the Ki in assay [2] and in assay [3] were 50.1 nM and 398 nM, respectively.
`O=C(O)c1cc(NC(=O)[C@H](Cc2ccc(F)cc2)NC(=O)C2C3c4ccccc4C(c4ccccc43)C2C(=O)NCC23CC4CC(CC(C4)C2)C3)cc(C(=O)O)c1` (single isomer, unassigned) [Example 8, cis-7-(1S-(3,5-dicarboxyphenylaminocarbonyl) -2-(4-fluorophenyl)-ethylaminocarbonyl)-8-(1-adamantane-methylaminocarbonyl)-2,3,5,6-dibenzobicyclo[2.2.2]octane]: the Kb in assay [1] was 7.94 nM. Also, the figures for the Ki in assay [2] and in assay [3] were 12.6 nM and 1000 nM, respectively.
The like results for `O=C(O)c1cc(NC(=O)[C@@H](Cc2ccccc2)NC(=O)C2C3c4ccccc4C(c4ccccc43)C2C(=O)NCC23CC4CC(CC(C4)C2)C3)cc(C(=O)O)c1` (single isomer, unassigned) [Example 3, cis-7-(1R-(3,5-dicarboxyphenylaminocarbonyl) -2-phenylethylaminocarbonyl)-8-(1-adamantanemethylaminocarbonyl) -2,3,5,6-dibenzobicyclo[2.2.2]octane] were, in that order, 126 nM, 10 nM and 2510 nM.
For the molecule `O=C(O)c1cc(NC(=O)[C@H](Cc2ccccc2)NC(=O)C2C3c4ccccc4C(c4ccccc43)C2C(=O)NCCc2ccccc2)cc(C(=O)O)c1` (stereo partly drawn) [Example 53, cis-7-(1S-(3,5-dicarboxyphenylaminocarbonyl) -2-phenylethylaminocarbonyl) -8-(2-phenylethylaminocarbonyl) -2,3,5,6-dibenzobicyclo[2.2.2]octane], in assay [1], the Kb is 79.4 nM. Moreover, the Ki in assay [2] is 3.98 nM; in assay [3] it was 3160 nM.
Consider `O=C(O)c1cc(NC(=O)[C@H](Cc2ccccc2)NC(=O)C2C3c4ccccc4C(c4ccccc43)C2C(=O)NCc2ccc3ccccc3c2)cc(C(=O)O)c1` (single isomer, unassigned) [Example 63, cis-7-(1S-(3,5-dicarboxyphenylaminocarbonyl) -2-phenylethylaminocarbonyl)-8-(2-naphthalenemethylaminocarbonyl) -2,3,5,6-dibenzobicyclo[2.2.2]octane], for which the Kb in assay [1] is 39.8 nM. Also, the Ki in assay [2] was 2.51 nM; in assay [3], 1580 nM.
In the case of `O=C(O)c1ccc(NC(=O)[C@H](Cc2ccccc2)NC(=O)C2C3c4ccccc4C(c4ccccc43)C2C(=O)NCC23CC4CC(CC(C4)C2)C3)cc1C(=O)O` (stereo partly drawn) [Example 43, cis-7-(1S-(3,4-dicarboxyphenylaminocarbonyl)-2-phenylethylaminocarbonyl)-8-(1-adamantanemethylaminocarbonyl)-2,3,5,6-dibenzobicyclo [2.2.2]octane], the Kb in assay [1] is 794 nM. Moreover, the figures for the Ki in assay [2] and in assay [3] were 100 nM and 1260 nM, respectively.
